According to ChEMBL document CHEMBL4417630, “Small-molecule inhibitors of Rac1 in metastatic breast cancer” (2014):
Active and inactive are the calls of the source. No cut-off for these calls is given here.

Key:
[1] = molecular target: Ras-related C3 botulinum toxin substrate 3 (Homo sapiens) (UniProt P60763); assay: Inhibition of Rac3 in human MDA-MB-435 cells assessed as remaining enzyme activity at 1 uM by Western blotting based pulldown assay (reference value: 100%); assay type: cell-based
[2] = molecular target: Ras-related C3 botulinum toxin substrate 1 (Homo sapiens) (UniProt P63000); assay: Potency index, ratio of IC50 for NSC-23766 to IC50 for test compound for inhibition of Rac1 in human MDA-MB-435 cells incubated for 24 hrs by G-LISA Rac1 activation assay; assay type: cell-based
[3] = molecular target: Cell division control protein 42 homolog (Homo sapiens) (UniProt P60953); assay: Inhibition of Cdc42 in human MDA-MB-435 cells assessed as remaining enzyme activity at 2 uM by Western blotting based pulldown assay (reference value: 100%); assay type: cell-based
[4] = molecular target: Cell division control protein 42 homolog (Homo sapiens) (UniProt P60953); assay: Inhibition of Cdc42 in human MDA-MB-435 cells assessed as remaining enzyme activity at 4 uM by Western blotting based pulldown assay (reference value: 100%); assay type: cell-based
[5] = molecular target: Cell division control protein 42 homolog (Homo sapiens) (UniProt P60953); assay: Inhibition of Cdc42 in human MDA-MB-435 cells assessed as remaining enzyme activity at 5 uM by Western blotting based pulldown assay (reference value: 100%); assay type: cell-based
[6] = molecular target: Cell division control protein 42 homolog (Homo sapiens) (UniProt P60953); assay: Inhibition of Cdc42 in human MDA-MB-435 cells assessed as remaining enzyme activity at 10 uM by Western blotting based pulldown assay (reference value: 100%); assay type: cell-based
[7] = molecular target: Transforming protein RhoA (Homo sapiens) (UniProt P61586); assay: Activation of RhoA in human MDA-MB-435 cells assessed as remaining enzyme activity at 2 uM by Western blotting based pulldown assay (reference value: 100%); assay type: cell-based
[8] = molecular target: Transforming protein RhoA (Homo sapiens) (UniProt P61586); assay: Activation of RhoA in human MDA-MB-435 cells assessed as remaining enzyme activity at 4 uM by Western blotting based pulldown assay (reference value: 100%); assay type: cell-based
[9] = molecular target: Transforming protein RhoA (Homo sapiens) (UniProt P61586); assay: Activation of RhoA in human MDA-MB-435 cells assessed as remaining enzyme activity at 5 uM by Western blotting based pulldown assay (reference value: 100%); assay type: cell-based
[10] = molecular target: Transforming protein RhoA (Homo sapiens) (UniProt P61586); assay: Activation of RhoA in human MDA-MB-435 cells assessed as remaining enzyme activity at 10 uM by Western blotting based pulldown assay (reference value: 100%); assay type: cell-based
[11] = test system: Ras-related C3 botulinum toxin substrate 1 (Homo sapiens), P63000 [G15A]; assay: Inhibition of glutathione agarose conjugated Rac1 G15A mutant (unknown origin) in assessed as reduction in purified Tiam-1 DH/PH domain association with Rac1 G15A mutant at 40 uM by Western blotting based pulldown assay relative to control
[12] = molecular target: Ras-related C3 botulinum toxin substrate 1 (Homo sapiens) (UniProt P63000); assay: Inhibition of Rac1 in human MDA-MB-231 cells assessed as remaining enzyme activity at 2 uM by Western blotting based pulldown assay (reference value: 100%); assay type: cell-based
[13] = molecular target: Ras-related C3 botulinum toxin substrate 1 (Homo sapiens) (UniProt P63000); assay: Inhibition of Rac1 in human MDA-MB-231 cells assessed as remaining enzyme activity at 4 uM by Western blotting based pulldown assay (reference value: 100%); assay type: cell-based
[14] = molecular target: Ras-related C3 botulinum toxin substrate 1 (Homo sapiens) (UniProt P63000); assay: Inhibition of Rac1 in human MDA-MB-435 cells assessed as remaining enzyme activity at 2 uM by Western blotting based pulldown assay (reference value: 100%); assay type: cell-based
[15] = molecular target: Ras-related C3 botulinum toxin substrate 1 (Homo sapiens) (UniProt P63000); assay: Inhibition of Rac1 in human MDA-MB-435 cells assessed as remaining enzyme activity at 4 uM by Western blotting based pulldown assay (reference value: 100%); assay type: cell-based
[16] = molecular target: Cell division control protein 42 homolog (Homo sapiens) (UniProt P60953); assay: Inhibition of Cdc42 in human MDA-MB-435 cells assessed as inhibition of lamellipodia formation at 2 to 4 uM incubated for 24 hrs rhodamine phalloidin staining based fluorescence microscopy; assay type: cell-based
[17] = molecular target: Cell division control protein 42 homolog (Homo sapiens) (UniProt P60953); assay: Inhibition of Cdc42 in human MDA-MB-231 cells assessed as inhibition of lamellipodia formation at 2 to 4 uM incubated for 24 hrs rhodamine phalloidin staining based fluorescence microscopy; assay type: cell-based
[18] = molecular target: Ras-related C3 botulinum toxin substrate 1 (Homo sapiens) (UniProt P63000); assay: Inhibition of Rac1 in human MDA-MB-435 cells assessed as reduction in PAK1 […] phosphorylation at 2 to 4 uM by Western blot analysis; assay type: cell-based
[19] = test system: MDA-MB-231; assay: Cytotoxicity against human MDA-MB-231 cells assessed as reduction in cell viability at 1 to 2 uM incubated for 24 hrs by MTT assay; assay type: functional, cell-based
[20] = test system: MDA-MB-435; assay: Cytotoxicity against human MDA-MB-435 cells assessed as reduction in cell viability at 1 to 2 uM incubated for 24 hrs by MTT assay; assay type: functional, cell-based
[21] = test system: MCF-10A; assay: Cytotoxicity against human MCF10A cells assessed as reduction in cell viability at 1 to 2 uM incubated for 24 hrs by MTT assay; assay type: cell-based
[22] = test system: MDA-MB-435; assay: Cytotoxicity against human MDA-MB-435 cells assessed as reduction in cell viability at 25 uM incubated for 24 hrs by MTT assay; assay type: functional, cell-based
[23] = test system: MDA-MB-231; assay: Cytotoxicity against human MDA-MB-231 cells assessed as reduction in cell viability at 25 uM incubated for 24 hrs by MTT assay; assay type: functional, cell-based
[24] = test system: MCF-10A; assay: Cytotoxicity against human MCF10A cells assessed as reduction in cell viability at 25 uM incubated for 24 hrs by MTT assay; assay type: cell-based
[25] = test system: Ras-related C3 botulinum toxin substrate 1 (Homo sapiens), P63000 [G15A]; assay: Inhibition of glutathione agarose conjugated Rac1 G15A mutant (unknown origin) in assessed as reduction in purified Tiam-1 DH/PH domain association with Rac1 G15A mutant at […] by Western blotting based pulldown assay relative to control
[26] = Toxicity in athymic nude mouse assessed as effect on body weight at 1 mg/kg, ip dosed once week for 9 weeks; assay type: organism-based; conditions: in vivo, 1512 h
[27] = Toxicity in athymic nude mouse assessed as effect on body weight at 1 mg/kg, po dosed once week for 9 weeks; assay type: organism-based; conditions: in vivo, 1512 h
[28] = Toxicity in athymic nude mouse assessed as effect on gross indications of toxicity at 1 mg/kg, ip dosed once week for 9 weeks; assay type: organism-based; conditions: in vivo, 1512 h
[29] = Toxicity in athymic nude mouse assessed as effect on gross indications of toxicity at 1 mg/kg, po dosed once week for 9 weeks; assay type: organism-based; conditions: in vivo, 1512 h
[30] = test system: Ras-related C3 botulinum toxin substrate 1 (Homo sapiens), P63000 [G15A]; assay: Inhibition of glutathione agarose conjugated Rac1 G15A mutant (unknown origin) in assessed as reduction in purified Tiam-1 DH/PH domain association with Rac1 G15A mutant by measuring average Tiam-1 level in pulldown at 4 uM by Western blotting based pulldown assay (reference value: 100%); set-up: scale not given: the % may be the effect or the level left
[31] = test system: Ras-related C3 botulinum toxin substrate 1 (Homo sapiens), P63000 [G15A]; assay: Inhibition of glutathione agarose conjugated Rac1 G15A mutant (unknown origin) in assessed as reduction in purified Tiam-1 DH/PH domain association with Rac1 G15A mutant by measuring average Tiam-1 level in pulldown at 8 uM by Western blotting based pulldown assay (reference value: 100%); set-up: scale not given: the % may be the effect or the level left
[32] = test system: Ras-related C3 botulinum toxin substrate 1 (Homo sapiens), P63000 [G15A]; assay: Inhibition of glutathione agarose conjugated Rac1 G15A mutant (unknown origin) in assessed as reduction in purified Tiam-1 DH/PH domain association with Rac1 G15A mutant by measuring average Tiam-1 level in pulldown at 25 uM by Western blotting based pulldown assay (reference value: 100%); set-up: scale not given: the % may be the effect or the level left

Sequence of Transforming protein RhoA (Homo sapiens) (P61586 whole entry, the tested form may be a part): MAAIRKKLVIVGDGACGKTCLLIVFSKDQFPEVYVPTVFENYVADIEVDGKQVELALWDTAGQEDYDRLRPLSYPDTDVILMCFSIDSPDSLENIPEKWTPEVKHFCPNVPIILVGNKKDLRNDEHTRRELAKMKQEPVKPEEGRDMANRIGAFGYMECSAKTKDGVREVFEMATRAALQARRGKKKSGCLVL
Sequence of Cell division control protein 42 homolog (Homo sapiens) (P60953 whole entry, looked up): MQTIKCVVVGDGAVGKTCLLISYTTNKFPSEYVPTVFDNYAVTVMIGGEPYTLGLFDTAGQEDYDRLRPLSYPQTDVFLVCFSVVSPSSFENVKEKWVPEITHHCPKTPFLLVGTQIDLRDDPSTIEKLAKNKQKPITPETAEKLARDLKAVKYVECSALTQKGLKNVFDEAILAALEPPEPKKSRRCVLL

## CCn1c2ccccc2c2cc(Nc3ccnc(NCCCN4CCOCC4)n3)ccc21
[1]
  Activity: 42%
[2]
  Ratio IC50: 100
[3]
  Activity: 104%
[4]
  Activity: 95%
[5]
  Activity: 72%
[6]
  Activity: 25%
[7]
  Activity: 155%
[8]
  Activity: 128%
[9]
  Activity: 125%
[10]
  Activity: 123%
[11]
  inhibition: Active
[12]
  Activity: 65%
[13]
  Activity: 35%
[14]
  Activity: 19%
[15]
  Activity: 7%
[16]
  inhibition: inactive
[17]
  inhibition: inactive
[18]
  inhibition: Active
[19]
  Activity: inactive
[20]
  Activity: inactive
[21]
  Activity: Non-Toxic
[22]
  Activity: Active
[23]
  Activity: Active
[24]
  Activity: Toxic
[25]
  inhibition: Active
[26]
  Activity: Non-Toxic
[27]
  Activity: Non-Toxic
[28]
  Activity: Non-Toxic
[29]
  Activity: Non-Toxic
[30]
  Activity: 123%
[31]
  Activity: 96%
[32]
  Activity: 112%
